Experimental data taken from PMC6789174 (Drug Design, Development and Therapy, 2019).
Converted amounts (≈) assume the structure as drawn.

Tests used:
Acetylcholinesterase = Acetylcholinesterase (Homo sapiens, UniProt P22303); experiment: biochemical; conditions: for inhibition at 125 µg/mL / inhibition at 250 µg/mL / inhibition at 500 µg/mL / inhibition at 1000 µg/mL: read-out: %AChE Inhibition (mean ± SEM)
Butyrylcholinesterase = Butyrylcholinesterase (Homo sapiens, UniProt P06276); experiment: Anticholinesterase assay; assay type: biochemical; conditions: for inhibition at 125 µg/mL / inhibition at 250 µg/mL / inhibition at 500 µg/mL / inhibition at 1000 µg/mL: read-out: %BChE Inhibition (mean ± SEM)
Butyrylcholinesterase, sequence (P06276 29-602): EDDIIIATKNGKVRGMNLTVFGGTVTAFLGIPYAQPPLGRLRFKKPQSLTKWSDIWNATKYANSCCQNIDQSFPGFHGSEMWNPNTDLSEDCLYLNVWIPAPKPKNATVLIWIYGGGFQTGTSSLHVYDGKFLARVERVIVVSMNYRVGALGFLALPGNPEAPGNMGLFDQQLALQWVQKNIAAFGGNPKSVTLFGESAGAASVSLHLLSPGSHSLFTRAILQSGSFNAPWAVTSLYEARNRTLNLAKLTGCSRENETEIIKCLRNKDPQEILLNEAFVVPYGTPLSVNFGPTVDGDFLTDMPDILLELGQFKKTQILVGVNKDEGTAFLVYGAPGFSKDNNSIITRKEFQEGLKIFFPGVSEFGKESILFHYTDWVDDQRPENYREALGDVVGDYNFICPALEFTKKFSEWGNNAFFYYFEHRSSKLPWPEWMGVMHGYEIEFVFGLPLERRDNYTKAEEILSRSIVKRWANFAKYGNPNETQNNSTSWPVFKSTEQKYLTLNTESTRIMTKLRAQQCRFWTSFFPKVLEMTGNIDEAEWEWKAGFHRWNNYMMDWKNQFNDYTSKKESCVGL

porcine α-amylase = biological target: T1, porcine α-amylase (Sus scrofa, UniProt P00690); experiment: biochemical; conditions: for inhibition at 125 µg/mL: read-out: %Inhibition (mean ± SEM), alpha amylase, concentration 125 µg/mL; for inhibition at 250 µg/mL: read-out: %Inhibition (mean ± SEM), alpha amylase, concentration 250 µg/mL; for inhibition at 1000 µg/mL: read-out: %Inhibition (mean ± SEM), alpha amylase, concentration 1000 µg/mL
T1 sequence (P00690 16-511): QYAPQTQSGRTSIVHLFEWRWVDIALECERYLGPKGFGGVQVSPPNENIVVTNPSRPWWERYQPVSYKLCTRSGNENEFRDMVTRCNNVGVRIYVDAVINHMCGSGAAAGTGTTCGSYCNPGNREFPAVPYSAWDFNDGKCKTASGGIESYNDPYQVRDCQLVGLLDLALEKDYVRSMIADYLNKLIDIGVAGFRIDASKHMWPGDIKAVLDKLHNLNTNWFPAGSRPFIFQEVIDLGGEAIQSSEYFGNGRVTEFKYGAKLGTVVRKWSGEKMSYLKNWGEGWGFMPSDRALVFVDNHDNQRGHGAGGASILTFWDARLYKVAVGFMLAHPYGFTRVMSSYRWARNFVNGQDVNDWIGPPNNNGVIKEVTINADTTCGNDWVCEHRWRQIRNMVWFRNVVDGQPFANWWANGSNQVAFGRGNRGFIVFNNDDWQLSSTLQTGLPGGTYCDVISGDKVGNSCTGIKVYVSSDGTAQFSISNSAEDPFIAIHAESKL

glucose-6-phosphatase = biological target: T2, glucose-6-phosphatase (Homo sapiens, UniProt P35575); experiment: Glucose-6-phosphatase activity; assay type: biochemical; conditions: for Total Activity of glucose-6-phosphatase: 33°C, pH 6.7, control 72.0
T2 sequence (P35575 1-357): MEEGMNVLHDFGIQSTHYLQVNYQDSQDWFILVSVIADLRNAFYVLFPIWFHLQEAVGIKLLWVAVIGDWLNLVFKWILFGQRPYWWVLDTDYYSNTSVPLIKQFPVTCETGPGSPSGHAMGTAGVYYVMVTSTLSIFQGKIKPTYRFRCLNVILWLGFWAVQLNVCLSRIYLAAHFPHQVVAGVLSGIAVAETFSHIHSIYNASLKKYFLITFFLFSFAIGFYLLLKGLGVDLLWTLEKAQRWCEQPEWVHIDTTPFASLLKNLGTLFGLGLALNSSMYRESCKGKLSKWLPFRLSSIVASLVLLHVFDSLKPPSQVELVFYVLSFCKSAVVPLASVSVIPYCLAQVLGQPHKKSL

[1] = DPPH free radical scavenging
[2] = ABTS free radical scavenging
[3] = tested on: Agrobacterium tumefaction; experiment: Anti-bacterial activity, agar well diffusion; assay type: cell-based; conditions: for MIC: read-out: MIC, Agrobacterium tumefaction; for zone of inhibition at 10 µg/mL / zone of inhibition at 20 µg/mL / zone of inhibition at 30 µg/mL: read-out: ZI (Zone of inhibition), Agrobacterium tumefaction
Proteus vulgaris = experiment: Anti-bacterial activity, agar well diffusion; assay type: cell-based; conditions: for MIC: read-out: MIC, Proteus vulgaris; for zone of inhibition at 10 µg/mL / zone of inhibition at 20 µg/mL / zone of inhibition at 30 µg/mL: read-out: ZI (Zone of inhibition), Proteus vulgaris
Staphylococcus aureus = experiment: Anti-bacterial activity, agar well diffusion; assay type: cell-based; conditions: for MIC: read-out: MIC, Staphylococcus aureus; for zone of inhibition at 10 µg/mL / zone of inhibition at 20 µg/mL / zone of inhibition at 30 µg/mL: read-out: ZI (Zone of inhibition), Staphylococcus aureus

Acetylcholinesterase, sequence (P22303 32-614, species assumed): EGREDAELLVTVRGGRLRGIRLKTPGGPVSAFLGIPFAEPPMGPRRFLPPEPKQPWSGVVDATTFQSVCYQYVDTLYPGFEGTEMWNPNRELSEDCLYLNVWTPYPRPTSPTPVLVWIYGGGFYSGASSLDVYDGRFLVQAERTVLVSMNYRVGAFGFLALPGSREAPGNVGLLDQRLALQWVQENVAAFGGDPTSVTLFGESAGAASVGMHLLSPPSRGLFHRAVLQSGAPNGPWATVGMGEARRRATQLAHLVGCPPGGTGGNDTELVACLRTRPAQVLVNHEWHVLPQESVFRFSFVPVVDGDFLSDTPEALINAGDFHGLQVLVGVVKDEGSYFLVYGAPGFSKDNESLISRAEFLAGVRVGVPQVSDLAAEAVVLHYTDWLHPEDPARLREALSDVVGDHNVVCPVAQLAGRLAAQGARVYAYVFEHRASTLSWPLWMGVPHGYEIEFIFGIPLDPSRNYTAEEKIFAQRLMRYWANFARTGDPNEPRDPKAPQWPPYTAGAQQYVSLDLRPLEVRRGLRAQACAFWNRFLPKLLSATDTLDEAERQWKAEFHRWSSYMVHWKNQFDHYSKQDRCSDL

Fc1ccccc1NC(=S)Nc1ccccc1 [Compound V, 1-(2-fluorophenyl)-3-phenylthiourea]
IC50 (Acetylcholinesterase): 739 µM
inhibition at 125 µg/mL (Acetylcholinesterase): 51.8 ± 1.72%
inhibition at 250 µg/mL (Acetylcholinesterase): 56.3 ± 2.14%
inhibition at 500 µg/mL (Acetylcholinesterase): 68.2 ± 1.25%
inhibition at 1000 µg/mL (Acetylcholinesterase): 70.2 ± 1.09%
IC50 (Butyrylcholinesterase): 406 µM
inhibition at 125 µg/mL (Butyrylcholinesterase): 53.07 ± 0.48%
inhibition at 250 µg/mL (Butyrylcholinesterase): 55.1 ± 1.04%
inhibition at 500 µg/mL (Butyrylcholinesterase): 59.1 ± 1.76%
inhibition at 1000 µg/mL (Butyrylcholinesterase): 62.7 ± 1.22%
IC50 (porcine α-amylase): 406 µM
inhibition at 125 µg/mL (porcine α-amylase): 52.1 ± 2.11%
inhibition at 250 µg/mL (porcine α-amylase): 55.91 ± 0.43%
inhibition at 500 µg/mL (porcine α-amylase; read-out: %Inhibition (mean ± SEM), alpha amylase, concentration 500 µg/mL): 59.5 ± 1.24%
inhibition at 1000 µg/mL (porcine α-amylase): 62.8 ± 1.13%
Glucose-6-phosphatase inhibition, in words (glucose-6-phosphatase; compared to control experiments): most potent inhibitors
Total Activity of glucose-6-phosphatase (glucose-6-phosphatase; concentration 125 µg/mL): 05.66 mg of P released per hour
Total Activity of glucose-6-phosphatase (glucose-6-phosphatase; concentration 250 µg/mL): 05.21 mg of P released per hour
Total Activity of glucose-6-phosphatase (glucose-6-phosphatase; concentration 500 µg/mL): 04.16 mg of P released per hour
DPPH IC50 [1]: 70 µg/mL
DPPH % I (mean ± S.E.M) ([1]; concentration 125 μg/mL): 68.83 ± 1.53%
DPPH % I (mean ± S.E.M) ([1]; concentration 250 μg/mL): 70.55 ± 1.27%
DPPH % I (mean ± S.E.M) ([1]; concentration 500 μg/mL): 71.50 ± 1.61%
DPPH % I (mean ± S.E.M) ([1]; concentration 1000 μg/mL): 73.14 ± 1.10%
ABTS IC50 [2]: 85 µg/mL
ABTS % I (mean ± S.E.M) ([2]; concentration 125 μg/mL): 69.45 ± 1.29%
ABTS % I (mean ± S.E.M) ([2]; concentration 250 μg/mL): 71.14 ± 1.90%
ABTS % I (mean ± S.E.M) ([2]; concentration 500 μg/mL): 73.18 ± 1.46%
ABTS % I (mean ± S.E.M) ([2]; concentration 1000 μg/mL): 75.04 ± 0.10%
MIC [3]: 11.6 µg/mL (≈ 47.1 µM)
zone of inhibition at 10 µg/mL [3]: 15 mm
zone of inhibition at 20 µg/mL [3]: 20 mm
zone of inhibition at 30 µg/mL [3]: 25 mm
MIC (Proteus vulgaris): 8.94 µg/mL (≈ 36.3 µM)
zone of inhibition at 10 µg/mL (Proteus vulgaris): 16 mm
zone of inhibition at 20 µg/mL (Proteus vulgaris): 21 mm
zone of inhibition at 30 µg/mL (Proteus vulgaris): 24 mm
MIC (Staphylococcus aureus): 24.1 µg/mL (≈ 97.9 µM)
zone of inhibition at 10 µg/mL (Staphylococcus aureus): 12 mm
zone of inhibition at 20 µg/mL (Staphylococcus aureus): 14 mm
zone of inhibition at 30 µg/mL (Staphylococcus aureus): 16 mm

O=C1O[C@H]([C@@H](O)CO)C(O)=C1O [Ascorbic acid, reference compound]
DPPH IC50 [1]: 35 µg/mL
DPPH % I (mean ± S.E.M) ([1]; concentration 125 μg/mL): 67.40±1.18%
DPPH % I (mean ± S.E.M) ([1]; concentration 250 μg/mL): 76.13±1.45%
DPPH % I (mean ± S.E.M) ([1]; concentration 500 μg/mL): 85.11 ± 1.64%
DPPH % I (mean ± S.E.M) ([1]; concentration 1000 μg/mL): 90.14 ± 0.76%
ABTS IC50 [2]: 55 µg/mL
ABTS % I (mean ± S.E.M) ([2]; concentration 125 μg/mL): 55.30 ± 1.75%
ABTS % I (mean ± S.E.M) ([2]; concentration 250 μg/mL): 70.14 ± 1.16%
ABTS % I (mean ± S.E.M) ([2]; concentration 500 μg/mL): 85.45 ± 1.36%
ABTS % I (mean ± S.E.M) ([2]; concentration 1000 μg/mL): 88.17 ± 0.43%

S=C(Nc1ccccc1)NC(c1ccccn1)C(Cc1ccccc1)Cc1ccccc1 (stereo not shown) [Compound III, 1-(2-benzyl-3-phenyl-1-(pyridine-2-yl)propyl)-3-phenylthiourea]
IC50 (Acetylcholinesterase): 144 µM
inhibition at 125 µg/mL (Acetylcholinesterase): 62.2 ± 1.12%
inhibition at 250 µg/mL (Acetylcholinesterase): 66.5 ± 2.08%
inhibition at 500 µg/mL (Acetylcholinesterase): 75.7 ± 1.15%
inhibition at 1000 µg/mL (Acetylcholinesterase): 84.3 ± 1.12%
IC50 (Butyrylcholinesterase): 183 µM
inhibition at 125 µg/mL (Butyrylcholinesterase): 58.3 ± 1.06%
inhibition at 250 µg/mL (Butyrylcholinesterase): 61.8 ± 1.54%
inhibition at 500 µg/mL (Butyrylcholinesterase): 63.8 ± 1.53%
inhibition at 1000 µg/mL (Butyrylcholinesterase): 68.5 ± 1.07%
IC50 (porcine α-amylase): 263 µM
%Inhibition (mean ± SEM), alpha amylase (porcine α-amylase; concentration 250 μg/mL): 57.91 ± 0.43%
inhibition at 125 µg/mL (porcine α-amylase): 50.1 ± 2.11%
inhibition at 250 µg/mL (porcine α-amylase): 62.5 ± 1.24%
inhibition at 1000 µg/mL (porcine α-amylase): 65.8 ± 1.13%
Total Activity of glucose-6-phosphatase (glucose-6-phosphatase; concentration 125 µg/mL): 32.04 mg of P released per hour
Total Activity of glucose-6-phosphatase (glucose-6-phosphatase; concentration 250 µg/mL): 28.35 mg of P released per hour
Total Activity of glucose-6-phosphatase (glucose-6-phosphatase; concentration 500 µg/mL): 27.10 mg of P released per hour
DPPH IC50 [1]: 79 µg/mL
DPPH % I (mean ± S.E.M) ([1]; concentration 125 μg/mL): 61.14±0.177%
DPPH % I (mean ± S.E.M) ([1]; concentration 250 μg/mL): 64.74 ± 0.267%
DPPH % I (mean ± S.E.M) ([1]; concentration 500 μg/mL): 66.07 ± 0.283%
DPPH % I (mean ± S.E.M) ([1]; concentration 1000 μg/mL): 67.45 ± 0.095%
ABTS IC50 [2]: 80 µg/mL
ABTS % I (mean ± S.E.M) ([2]; concentration 125 μg/mL): 64.77 ±0.087%
ABTS % I (mean ± S.E.M) ([2]; concentration 250 μg/mL): 66.25 ±0.123%
ABTS % I (mean ± S.E.M) ([2]; concentration 500 μg/mL): 68.27 ± 0.532%
ABTS % I (mean ± S.E.M) ([2]; concentration 1000 μg/mL): 69.11 ± 0.234%
MIC [3]: 11.6 µg/mL (≈ 26.6 µM)
zone of inhibition at 10 µg/mL [3]: 15 mm
zone of inhibition at 20 µg/mL [3]: 20 mm
zone of inhibition at 30 µg/mL [3]: 26 mm
MIC (Proteus vulgaris): 15 µg/mL (≈ 34.2 µM)
zone of inhibition at 10 µg/mL (Proteus vulgaris): 12 mm
zone of inhibition at 20 µg/mL (Proteus vulgaris): 16 mm
zone of inhibition at 30 µg/mL (Proteus vulgaris): 22 mm
MIC (Staphylococcus aureus): 14.9 µg/mL (≈ 34.1 µM)
zone of inhibition at 10 µg/mL (Staphylococcus aureus): 15 mm
zone of inhibition at 20 µg/mL (Staphylococcus aureus): 16 mm
zone of inhibition at 30 µg/mL (Staphylococcus aureus): 19 mm
